Test results: patent US10570122B2, “Compounds with anti-tumoral activity” (AB Science, priority 2015, dated 2020)

Columns and labels:
BT20 = experiment: CellTiter-Blue cell-based survival/proliferation assay, BT20; conditions: Homo sapiens, BT-20; BT20 breast tumor cell line, 48 h
Method: (§1) Cell-Based Proliferation Screening of Compounds
(§2) CellTiter-Blue cell-based survival/proliferation assay (Promega G8080) was performed on tumor cell lines. A total of 1·10^4 cells/well/50 μl were seeded in a 96-wells plate. Treatment was initiated by addition of a 2× drug solution of 1/10 serial dilutions ranging from 0 to 10 μM. Cells were grown for 48 h at 37° C. and then incubated with 10 μl/well of Promega CellTiter-Bleue reagent for 4 h at 37° C. The amount of resorufin dye formed was quantified by its fluorescence emission at 590 nm using a scanning multiwell spectrophotometer (OPTIMA, BMG labtech, France). A blank well without cells was used as a background control for the spectrophotometer.

HEPG2 = experiment: CellTiter-Blue cell-based survival/proliferation assay, HEPG2; conditions: Homo sapiens; HEPG2 liver tumor cell line, 48 h
Method: as §1, §2

DU145 = experiment: CellTiter-Blue cell-based survival/proliferation assay, DU145; conditions: Homo sapiens, DU-145; DU145 prostate tumor cell line, 48 h
Method: as §1, §2

[1] = tested on: panel of about 34 human tumor cell lines; experiment: Cell-based proliferation screening on panel of tumor cell lines; conditions: solid tumor cell line, cell line unknown, 48 h, read-out: IC50, solid tumor cell line of column 6 (last section of Table 3)
Method: Compounds of formula (I) were tested against a panel of about 34 human tumor cell lines representing 17 cancer type, namely leukemia (represented by 1 cell line), lymphoma (4 cell lines), myeloma (1 cell line), colorectal (2 cell lines), head and neck (3 cell lines), lung (3 cell lines), melanoma (2 cell lines), pancreas (2 cell lines), prostate (2 cell lines), ovary (2 cell lines) breast (2 cell lines), kidney (2 cell lines), stomach (2 cell lines), liver (2 cell lines), glioblastoma (2 cell lines), osteosarcoma (1 cell line), Ewing Sarcoma (1 cell line).
as §1, §2

BXPC3 = experiment: CellTiter-Blue cell-based survival/proliferation assay, BXPC3; conditions: Homo sapiens, BXPC-3; BXPC3 pancreas tumor cell line, 48 h
Method: as §1, §2

MDAMB231 = experiment: CellTiter-Blue cell-based survival/proliferation assay, MDAMB231; conditions: Homo sapiens, MDA-MB-231; MDAMB231 breast tumor cell line, 48 h
Method: as §1, §2

CLS354 = experiment: CellTiter-Blue cell-based survival/proliferation assay, CLS354; conditions: Homo sapiens, CLS-354; CLS354_4 head & neck tumor cell line, 48 h
Method: as §1, §2

A549 = experiment: CellTiter-Blue cell-based survival/proliferation assay, A549; conditions: Homo sapiens; A549 lung tumor cell line, 48 h
Method: as §1, §2

CALU6 = experiment: CellTiter-Blue cell-based survival/proliferation assay, CALU6; conditions: Homo sapiens, Calu-6; CALU6 lung tumor cell line, 48 h
Method: as §1, §2

PLCPRF5 = experiment: CellTiter-Blue cell-based survival/proliferation assay, PLCPRF5; conditions: Homo sapiens, PLC-PRF-5; PLC_PRF5 liver tumor cell line, 48 h
Method: as §1, §2

PC3 = experiment: CellTiter-Blue cell-based survival/proliferation assay, PC3; conditions: Homo sapiens, PC-3; PC3 prostate tumor cell line, 48 h
Method: as §1, §2

MESSA = experiment: CellTiter-Blue cell-based survival/proliferation assay, MESSA; conditions: Homo sapiens, MES-SA; MESSA ovary tumor cell line, 48 h
Method: as §1, §2

DLD1 = experiment: CellTiter-Blue cell-based survival/proliferation assay, DLD1; conditions: Homo sapiens, DLD-1; DLD_1 colorectal tumor cell line, 48 h
Method: as §1, §2

PANC1 = experiment: CellTiter-Blue cell-based survival/proliferation assay, PANC1; conditions: Homo sapiens, PANC-1; PANC_1 pancreas tumor cell line, 48 h
Method: as §1, §2

A498 = experiment: CellTiter-Blue cell-based survival/proliferation assay, A498; conditions: Homo sapiens; A498 kidney tumor cell line, 48 h
Method: as §1, §2

AGS = experiment: CellTiter-Blue cell-based survival/proliferation assay, AGS; conditions: Homo sapiens; AGS stomach tumor cell line, 48 h
Method: as §1, §2

H1299 = experiment: CellTiter-Blue cell-based survival/proliferation assay, H1299; conditions: Homo sapiens, NCI-H1299; H1299 lung tumor cell line, 48 h
Method: as §1, §2

OPM2 = experiment: CellTiter-Blue cell-based survival/proliferation assay, OPM2; conditions: Homo sapiens, OPM-2, Myeloma cell line OPM2, 48 h, read-out: Anti-tumoral activity (measured IC50) OPM2
Method: as §1, §2

ACHN = experiment: CellTiter-Blue cell-based survival/proliferation assay, ACHN; conditions: Homo sapiens; ACHN kidney tumor cell line, 48 h
Method: as §1, §2

TOV112D = experiment: CellTiter-Blue cell-based survival/proliferation assay, TOV112D; conditions: Homo sapiens; TOV112D ovary tumor cell line, 48 h
Method: as §1, §2

HEP2 = experiment: CellTiter-Blue cell-based survival/proliferation assay, HEP2; conditions: Homo sapiens, HEp-2; HEP2 head & neck tumor cell line, 48 h
Method: as §1, §2

HGC27 = experiment: CellTiter-Blue cell-based survival/proliferation assay, HGC27; conditions: Homo sapiens, HGC-27; HGC27 stomach tumor cell line, 48 h
Method: as §1, §2

HCT116 = experiment: CellTiter-Blue cell-based survival/proliferation assay, HCT116; conditions: Homo sapiens, HCT-116; HCT116 colorectal tumor cell line, 48 h
Method: as §1, §2

HL60 = experiment: CellTiter-Blue cell-based survival/proliferation assay, HL60; conditions: Homo sapiens, HL-60, Leukemia cell line HL60, 48 h, read-out: Anti-tumoral activity (measured IC50) HL60
Method: as §1, §2

SW579 = experiment: CellTiter-Blue cell-based survival/proliferation assay, SW579; conditions: Homo sapiens; SW579 head & neck tumor cell line, 48 h
Method: as §1, §2

SMILES	IC50 (BT20) [nM]	IC50 (HEPG2) [nM]	IC50 (DU145) [nM]	IC50 [1] [nM]	IC50 (BXPC3) [nM]	IC50 (MDAMB231) [nM]	IC50 (CLS354) [nM]	IC50 (A549) [nM]	IC50 (CALU6) [nM]	IC50 (PLCPRF5) [nM]	IC50 (PC3) [nM]	IC50 (MESSA) [nM]	IC50 (DLD1) [nM]	IC50 (PANC1) [nM]	IC50 (A498) [nM]	IC50 (AGS) [nM]	IC50 (H1299) [nM]	IC50 (OPM2) [nM]	IC50 (ACHN) [nM]	IC50 (TOV112D) [nM]	other results
CCOCc1ccc(C)c(Nc2ncc(-c3ccc(-n4nccc4C)cc3)o2)c1 [Example 041, (5-Ethoxymethyl-2-methyl-phenyl)-{5-[4-(5-methyl-pyrazol-1-yl)-phenyl]-oxazol-2-yl}-amine]	> 1000	> 1000	> 1000	100 to 500	> 1000	> 1000	> 1000	> 1000	> 1000	> 1000	> 1000	> 1000	> 1000	> 1000	> 1000	> 1000	> 1000	500 to 1000	> 1000	100 to 500	IC50 (HEP2): > 1000 nM; IC50 (HGC27): > 1000 nM; IC50 (HCT116): > 1000 nM; IC50 (HL60): 500 to 1000 nM; IC50 (SW579): > 1000 nM
CCOCc1ccc(C)c(Nc2ncc(-c3ccc(-n4nc[nH]c4=O)cc3)o2)c1 [Example 043, 2-{4-[2-(5-Ethoxymethyl-(2-methyl-phenylamino))-oxazol-5-yl]-phenyl}-2,4-dihydro-[1,2,4]triazol-3-one]	> 1000	> 1000	> 1000	100 to 500	> 1000	> 1000	> 1000	> 1000	> 1000	> 1000	> 1000	> 1000	> 1000	> 1000	> 1000	> 1000	> 1000	500 to 1000	> 1000	100 to 500	IC50 (HEP2): > 1000 nM; IC50 (HGC27): > 1000 nM; IC50 (HCT116): > 1000 nM; IC50 (HL60): 500 to 1000 nM; IC50 (SW579): > 1000 nM
CCOCc1ccc(C)c(Nc2ncc(-c3ccc(N4C(=O)NC[C@H]4C)cc3)o2)c1 [Example 051, (R)-1-(4-(2-((5-(ethoxymethyl)-2-methylphenyl)amino)oxazol-5-yl)phenyl)-5-methylimidazolidin-2-one]	> 1000	> 1000	> 1000	100 to 500	> 1000	> 1000	≤ 100	> 1000	> 1000	> 1000	≤ 100	> 1000	> 1000	> 1000	> 1000	> 1000	> 1000	≤ 100	> 1000	≤ 100	IC50 (HEP2): 100 to 500 nM; IC50 (HGC27): > 1000 nM; IC50 (HCT116): > 1000 nM; IC50 (HL60): ≤ 100 nM; IC50 (SW579): > 1000 nM
CCOCc1ccc(C)c(Nc2ncc(-c3ccc(-n4c(C)n[nH]c4=O)cc3)o2)c1 [Example 052, 4-(4-(2-((5-(ethoxymethyl)-2-methylphenyl)amino)oxazol-5-yl)phenyl)-5-methyl-2,4-dihydro-3H-1,2,4-triazol-3-one]	> 1000	> 1000	> 1000	> 1000	> 1000	> 1000	> 1000	> 1000	> 1000	> 1000	> 1000	> 1000	> 1000	> 1000	> 1000	> 1000	> 1000	> 1000	> 1000	> 1000	IC50 (HEP2): > 1000 nM; IC50 (HGC27): > 1000 nM; IC50 (HCT116): > 1000 nM; IC50 (HL60): > 1000 nM; IC50 (SW579): > 1000 nM
CCOCc1cc(COCC)cc(Nc2ncc(-c3ccc(N4CCNC4=O)cc3)o2)c1 [Example 053, 1-(4-(2-((3,5-bis(ethoxymethyl)phenyl)amino)oxazol-5-yl)phenyl)imidazolidin-2-one]	> 1000	> 1000	> 1000	≤ 100	> 1000	> 1000	≤ 100	> 1000	> 1000	> 1000	≤ 100	≤ 100	> 1000	> 1000	> 1000	100 to 500	> 1000	≤ 100	> 1000	> 1000	IC50 (HEP2): ≤ 100 nM; IC50 (HGC27): 100 to 500 nM; IC50 (HCT116): ≤ 100 nM; IC50 (HL60): ≤ 100 nM; IC50 (SW579): > 1000 nM
